# Patent EP1202975B1, “SUBSTITUTED POLYCYCLIC ARYL AND HETEROARYL PYRAZINONES USEFUL FOR SELECTIVE INHIBITION OF THE COAGULATION CASCADE” (Pharmacia Corporation, priority 1999, dated 2000)
# Where two headings read alike, the source gives them in different places.
# Assays:
# [1] = molecular target: T1, TF-VIIa (Homo sapiens, UniProt P08709); assay: TF-VIIa Assay; format: biochemical
# T1 construct: 2nM recombinant human factor VIIa; purchased American Diagnostica, Greenwich CT; host or cells: soluble TF made in house in E. coli
# [2] = molecular target: Human factor Xa (Homo sapiens, UniProt P00742)
# [3] = read-out: IC50 or % Inhibition TF-VIIa (30 µM); cells given as a plain number (IC50)
# [4] = cells given as a plain number (IC50); read-out: IC50 or % Inhibition TF-VIIa (30 µM)
# T1 sequence (P08709 213-466 limits assumed): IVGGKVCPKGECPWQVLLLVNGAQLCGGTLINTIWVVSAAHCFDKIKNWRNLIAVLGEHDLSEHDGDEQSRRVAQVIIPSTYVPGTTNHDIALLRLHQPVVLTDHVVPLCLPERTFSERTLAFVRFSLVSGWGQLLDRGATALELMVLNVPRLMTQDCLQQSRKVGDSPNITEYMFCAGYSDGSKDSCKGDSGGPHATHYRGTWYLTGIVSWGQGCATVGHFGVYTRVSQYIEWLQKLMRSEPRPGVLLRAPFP
# T1 sequence (P08709 61-212 limits assumed): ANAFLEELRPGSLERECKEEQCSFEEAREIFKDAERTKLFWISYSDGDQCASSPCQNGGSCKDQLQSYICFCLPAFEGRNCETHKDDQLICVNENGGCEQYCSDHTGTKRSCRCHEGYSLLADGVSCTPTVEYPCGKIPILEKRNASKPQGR
# T1 sequence (P13726 33-251 partner limits assumed): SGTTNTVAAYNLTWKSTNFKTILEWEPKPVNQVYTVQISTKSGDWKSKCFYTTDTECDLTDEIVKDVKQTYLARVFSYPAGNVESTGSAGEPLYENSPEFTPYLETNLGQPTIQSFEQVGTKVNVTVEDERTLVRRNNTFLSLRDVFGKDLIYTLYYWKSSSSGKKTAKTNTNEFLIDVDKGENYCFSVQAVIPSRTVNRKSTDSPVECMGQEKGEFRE
# Human factor Xa, sequence (P00742 235-488 limits assumed): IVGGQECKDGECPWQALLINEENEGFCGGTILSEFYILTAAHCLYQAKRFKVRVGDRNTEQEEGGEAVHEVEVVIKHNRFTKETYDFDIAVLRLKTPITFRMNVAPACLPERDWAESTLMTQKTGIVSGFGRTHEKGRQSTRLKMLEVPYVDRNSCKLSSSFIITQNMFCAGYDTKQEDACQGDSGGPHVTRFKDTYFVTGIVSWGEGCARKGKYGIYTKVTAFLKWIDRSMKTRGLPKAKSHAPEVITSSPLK
# Human factor Xa, sequence (P00742 41-179 limits assumed): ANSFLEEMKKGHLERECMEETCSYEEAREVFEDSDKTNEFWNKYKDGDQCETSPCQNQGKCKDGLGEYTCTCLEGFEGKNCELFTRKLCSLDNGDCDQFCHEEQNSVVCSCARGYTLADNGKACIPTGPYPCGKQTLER
Compound,"IC50 [1, 3] [µM]",IC50 or % Inhibition Factor Xa (30 µM) [2] [%],% Inhibition TF-VIIa (100 µM) ([1]; 100 µM) [%],other results
Cc1c(Cl)nc(NCc2ccccc2)c(=O)n1CC(=O)NCc1ccc(C(=N)N)cc1 [1471-1],8.17,10,–,–
Cc1c(Cl)nc(NCCc2ccc(Cl)cc2)c(=O)n1CC(=O)NCc1ccc(C(=N)N)cc1 [1471-2],3.62,10,–,–
Cc1c(Cl)nc(NCc2ccncc2)c(=O)n1CC(=O)NCc1ccc(C(=N)N)cc1 [1471-3],13.6,0,–,–
Cc1c(Cl)nc(NCCN2CCOCC2)c(=O)n1CC(=O)NCc1ccc(C(=N)N)cc1 [1471-4],29.4,0,–,–
Cc1c(Cl)nc(NCCc2ccncc2)c(=O)n1CC(=O)NCc1ccc(C(=N)N)cc1 [1471-5],8.69,12,–,–
Cc1c(Cl)nc(NCCc2cccc(Cl)c2)c(=O)n1CC(=O)NCc1ccc(C(=N)N)cc1 [1471-6],2.85,14,–,–
Cc1c(Cl)nc(NCCc2ccccc2)c(=O)n1CC(=O)NCc1ccc(C(=N)N)cc1 [1471-7],–,4,–,"IC50 [1, 4]: 4.28 µM"
Cc1c(Cl)nc(NCCc2cccnc2)c(=O)n1CC(=O)NCc1ccc(C(=N)N)cc1 [1471-8],3.86,27,–,–
N=C(N)c1ccc(CNC(=O)Cn2c(-c3ccccc3)c(Cl)nc(NCc3ccccc3)c2=O)cc1 [1471-9],–,29,–,"IC50 [1, 4]: 0.77 µM"
N=C(N)c1ccc(CNC(=O)Cn2c(-c3ccccc3)c(Cl)nc(NCCc3ccc(Cl)cc3)c2=O)cc1 [1471-10],–,45,–,"IC50 [1, 4]: 0.6 µM"
N=C(N)c1ccc(CNC(=O)Cn2c(-c3ccccc3)c(Cl)nc(NCc3ccncc3)c2=O)cc1 [1471-11],1.69,9,–,–
N=C(N)c1ccc(CNC(=O)Cn2c(-c3ccccc3)c(Cl)nc(NCCN3CCOCC3)c2=O)cc1 [1471-12],–,9,–,"IC50 [1, 4]: 7.97 µM"
N=C(N)c1ccc(CNC(=O)Cn2c(-c3ccccc3)c(Cl)nc(NCCc3cccc(Cl)c3)c2=O)cc1 [1471-14],–,–,–,"IC50 [1, 4]: 0.18 µM"
N=C(N)c1ccc(CNC(=O)Cn2c(-c3ccccc3)c(Cl)nc(NCCc3cccnc3)c2=O)cc1 [1471-16],0.82,23,–,–
N=C(N)c1ccc(CNC(=O)Cn2c(-c3ccc(Cl)cc3)c(Cl)nc(NCc3ccccc3)c2=O)cc1 [1471-17],11,–,–,–
N=C(N)c1ccc(CNC(=O)Cn2c(-c3ccc(Cl)cc3)c(Cl)nc(NCCc3ccncc3)c2=O)cc1 [1471-21],8.18,–,–,–

Compound,"IC50 [1, 3] [µM]",IC50 or % Inhibition Factor Xa (30 µM) [2] [%],% Inhibition TF-VIIa (100 µM) ([1]; 100 µM) [%],other results
N=C(N)c1ccc(CNC(=O)Cn2c(-c3ccc(Cl)cc3)c(Cl)nc(NCCc3cccnc3)c2=O)cc1 [1471-24],10,–,–,–
N=C(N)c1ccc(CNC(=O)Cn2c(-c3cccc(N)c3)c(Cl)nc(NCCN3CCCC3)c2=O)c(F)c1 [1543-37],–,–,–,IC50 ([1]; read-out: IC50 or % Inhibition TF-VIIa (30 µM); cells without % sign: IC50): 1.23 µM
Nc1cccc(-c2c(Cl)nc(NC3CCC3)c(=O)n2CC(=O)NCc2ccc(C3=NCCN3)cc2)c1 [Example 27],–,–,–,"IC50 [1, 4]: 12.5 µM"
NCc1ccc(CNC(=O)Cn2c(-c3cccc(N)c3)c(Cl)nc(NC3CCC3)c2=O)cc1 [Example 28],–,–,–,"IC50 [1, 4]: 3 µM"
O=C(Cn1c(-c2ccc(Cl)cc2)c(Cl)nc(NCc2ccccc2)c1=O)NCCc1ccncc1 [Example E-0017],–,–,0,–
O=C(Cn1c(-c2ccc(Cl)cc2)c(Cl)nc(NCCc2ccccc2)c1=O)NCCc1ccncc1 [Example E-0018],–,–,1,–
O=C(Cn1c(-c2ccc(Cl)cc2)c(Cl)nc(NCCc2cccc(Cl)c2)c1=O)NCCc1ccncc1 [Example E-0019],–,–,0,–
O=C(Cn1c(-c2ccc(Cl)cc2)c(Cl)nc(NCCc2ccc(Cl)cc2)c1=O)NCCc1ccncc1 [Example E-0020],–,–,0,–
O=C(Cn1c(-c2ccc(Cl)cc2)c(Cl)nc(NCCc2cccnc2)c1=O)NCCc1ccncc1 [Example E-0021],–,–,0,–
O=C(Cn1c(-c2ccc(Cl)cc2)c(Cl)nc(NCCc2ccncc2)c1=O)NCCc1ccncc1 [Example E-0022],–,–,0,–
O=C(Cn1c(-c2ccc(Cl)cc2)c(Cl)nc(NCCN2CCOCC2)c1=O)NCCc1ccncc1 [Example E-0023],–,–,0,–
O=C(Cn1c(-c2ccc(Cl)cc2)c(Cl)nc(NCc2ccncc2)c1=O)NCCc1ccncc1 [Example E-0024],–,–,0,–
O=C(Cn1c(-c2ccc(Cl)cc2)c(Cl)nc(NCc2ccccc2)c1=O)NCCc1ccncc1 [Example E-0025],–,–,0,–
O=C(Cn1c(-c2ccc(Cl)cc2)c(Cl)nc(NCCc2ccccc2)c1=O)NCCc1ccncc1 [Example E-0026],–,–,0,–
O=C(Cn1c(-c2ccc(Cl)cc2)c(Cl)nc(NCCc2ccc(Cl)cc2)c1=O)NCCc1ccncc1 [Example E-0028],–,–,0,–
